Test results published in patent publication US6765127B1, “Invertebrate intestinal mucin cDNA and related products and methods” (Boyce Thompson Institute for Plant Research, Inc., priority 1998, dated 2004).

Legend:
[1] = system: T1, invertebrate intestinal mucin (IIM) from Trichoplusia ni peritrophic membranes (native protein)
T1 sequence: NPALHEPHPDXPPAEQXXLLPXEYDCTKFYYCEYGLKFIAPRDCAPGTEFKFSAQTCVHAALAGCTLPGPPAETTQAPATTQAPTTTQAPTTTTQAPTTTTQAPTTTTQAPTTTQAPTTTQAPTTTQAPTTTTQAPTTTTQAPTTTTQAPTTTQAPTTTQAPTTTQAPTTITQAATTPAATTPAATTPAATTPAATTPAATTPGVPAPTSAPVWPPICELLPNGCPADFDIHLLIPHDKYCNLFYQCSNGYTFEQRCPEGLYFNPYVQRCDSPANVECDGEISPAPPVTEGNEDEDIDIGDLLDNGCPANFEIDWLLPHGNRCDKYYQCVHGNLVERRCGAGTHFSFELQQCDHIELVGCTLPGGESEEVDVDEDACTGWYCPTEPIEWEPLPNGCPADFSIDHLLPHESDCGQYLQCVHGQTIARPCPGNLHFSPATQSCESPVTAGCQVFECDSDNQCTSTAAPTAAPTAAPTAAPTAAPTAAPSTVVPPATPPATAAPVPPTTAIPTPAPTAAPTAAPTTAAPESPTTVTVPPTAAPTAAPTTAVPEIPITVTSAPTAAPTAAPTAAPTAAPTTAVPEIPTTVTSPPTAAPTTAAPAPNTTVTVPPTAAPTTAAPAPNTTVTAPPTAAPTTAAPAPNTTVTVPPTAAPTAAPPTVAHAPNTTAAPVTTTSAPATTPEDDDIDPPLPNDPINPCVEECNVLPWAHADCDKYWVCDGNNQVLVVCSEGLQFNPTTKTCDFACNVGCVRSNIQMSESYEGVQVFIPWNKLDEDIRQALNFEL

[2] = system: mucin isolated from Pseudaletia unipuncta peritrophic membranes
[3] = target: TnGV enhancin (Trichoplusia ni granulosis virus, UniProt P29998); settings: 10 mM EDTA in incubation buffer
Experimental: The degradation of IIM was examined by SDS/PAGE analysis. A parallel treatment of IIM without enhancin was included as a control. […] To confirm the metalloprotease nature of enhancin, IIM was incubated with TnGV enhancin in the presence of 10 mM EDTA.

[4] = system: T. ni PMs; experiment: Extraction of chitin binding proteins from dissected PMs with Calcofluor
Text: (§1) Calcofluor is a fluorescent dye with high chitin binding affinity. It has been utilized in studies on the formation of fungi and algal cell walls which are protective structures containing chitin and proteins. Calcofluor interferes with the cell wall formation by binding to nascent chitin molecules during cell wall formation, thus blocking chitin fibril assembly. Similar investigations on insect midgut chitin fibril formation using the chitin binding agent Calcofluor had not been approached until our recent studies were carried out. […] These isolated proteins have high chitin binding properties and are normally not extractable from fully formed PMs by detergents or extreme pH conditions. […] We believe that this phenomenon is due to the disruption of chitin fibril formation by the binding of Calcofluor to nascent chitin molecules as observed in other organisms.

[5] = system: T. ni larvae; experiment: PM formation in larvae fed Calcofluor; assay type: in vivo; settings: Calcofluor fed to T. ni larvae
Text: as §1

[6] = system: Lymantria dispar; experiment: PM formation with Calcofluor; assay type: in vivo
[7] = system: Pseudaletia unipuncta; experiment: PM formation with Calcofluor; assay type: in vivo
[8] = system: Helicoverpa zea; experiment: PM formation with Calcofluor; assay type: in vivo
[9] = system: Hyphantria cunea; experiment: PM formation with Calcofluor; assay type: in vivo
[10] = system: T. ni larvae; experiment: Feeding T. ni larvae artificial diet containing Calcofluor; assay type: in vivo; settings: artificial diet containing 1% Calcofluor
[11] = system: T. ni larvae; experiment: Baculovirus infection of Calcofluor treated larvae; assay type: in vivo; settings: Calcofluor disrupted PM formation
[12] = system: endogenous midgut proteases; experiment: Resistance of IIM in PMs to endogenous digestive proteases; set-up: species or system T. ni
Text: The stability of the IIM when exposed to degestive enzymes for long periods is aided by the O-linked carbohydrate moieties found in associated glycoproteins. […] Control treatments using PMS with inactivated or inhibited endogenous midgut proteases, confirmed that the degradation of IIM in the presence of O-glycosidase was a result of hydrolysis by endogenous digestive proteases, following removal of the protective carbohydrate moiety, galactose β(1-3) N-acetylgalactosamine.

Chain of TnGV enhancin (P29998 whole entry): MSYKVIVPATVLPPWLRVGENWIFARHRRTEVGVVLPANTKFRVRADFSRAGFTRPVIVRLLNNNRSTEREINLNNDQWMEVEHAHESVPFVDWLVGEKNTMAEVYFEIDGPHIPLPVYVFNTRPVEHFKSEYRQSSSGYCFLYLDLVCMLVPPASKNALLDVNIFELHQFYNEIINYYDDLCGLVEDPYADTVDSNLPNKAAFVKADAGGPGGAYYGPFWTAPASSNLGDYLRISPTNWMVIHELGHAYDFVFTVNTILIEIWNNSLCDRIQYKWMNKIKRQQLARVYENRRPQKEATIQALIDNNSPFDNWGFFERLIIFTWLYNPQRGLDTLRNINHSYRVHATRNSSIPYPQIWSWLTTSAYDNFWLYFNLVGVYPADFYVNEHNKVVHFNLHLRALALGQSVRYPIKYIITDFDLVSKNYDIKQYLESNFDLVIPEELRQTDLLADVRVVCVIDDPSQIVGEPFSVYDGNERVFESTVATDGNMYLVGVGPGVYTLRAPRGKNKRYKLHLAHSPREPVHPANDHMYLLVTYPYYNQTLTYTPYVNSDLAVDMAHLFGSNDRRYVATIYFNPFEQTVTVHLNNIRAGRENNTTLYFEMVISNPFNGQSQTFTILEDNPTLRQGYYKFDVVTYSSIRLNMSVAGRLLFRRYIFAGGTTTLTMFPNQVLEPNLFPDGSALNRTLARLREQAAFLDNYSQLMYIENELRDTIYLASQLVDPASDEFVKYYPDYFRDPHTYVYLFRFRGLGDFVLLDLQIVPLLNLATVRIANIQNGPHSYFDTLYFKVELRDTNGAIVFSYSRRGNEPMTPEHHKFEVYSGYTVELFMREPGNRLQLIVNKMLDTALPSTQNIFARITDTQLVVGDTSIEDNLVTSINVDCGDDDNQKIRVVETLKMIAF

Trichoplusia ni granulosis virus (TnGV) enhancin
degradation of IIM examined by SDS/PAGE (in vitro, 1.25 µg/ml enhancin, 37° C., 3 hours or overnight) [1]: Incubation of IIM with TnGV enhancin showed that the enhancin had activity against IIM. | digestion of IIM in the presence of 10 mM EDTA [1]: The addition of 10 mM EDTA to the incubation buffer blocked the digestion of the IIM and confirmed the metalloprotease nature of enhancin. | degradation of the mucin [2]: This mucin is also degraded by the TnGV enhancin

O=C(O)CN(CCN(CC(=O)O)CC(=O)O)CC(=O)O [EDTA]
effect on digestion of IIM by TnGV enhancin [3]: blocked the digestion of the IIM

O=S(=O)([O-])c1cc(Nc2nc(Nc3ccccc3)nc(N(CCO)CCO)n2)ccc1C=Cc1ccc(Nc2nc(Nc3ccccc3)nc(N(CCO)CCO)n2)cc1S(=O)(=O)[O-].[Na+].[Na+] [Calcofluor]
extraction of chitin binding proteins from dissected PMs [4]: extract and solubilize chitin binding proteins | PM formation [5]: completely inhibited and/or disrupted PM formation | PM disruption/inhibition [6]: further verified | PM disruption/inhibition [7]: further verified | PM disruption/inhibition [8]: further verified | PM disruption/inhibition [9]: further verified | insect mortality [10]: insect mortality | larval growth [10]: significantly slowed the growth | baculovirus infections in the larvae [11]: significantly increased baculovirus infections

IIM: novel invertebrate intestinal mucin from T. ni peritrophic membranes; isoforms IIM14 and IIM22
degradation of IIM in PMs by endogenous digestive proteases ([12]; in the presence of O-glycosidase): quickly degraded | degradation of IIM in PMs by endogenous digestive proteases ([12]; sixteen hour incubation): no degradation
